The text below walks through data of patent US4812583A, “Substituted acyloxyalkylphenylethylene inhibitors of 3-hydroxy-3-methylglutaryl-coa reductase” (American Home Products Corporation, priority 1987, dated 1989).

One assay has as its target T1, HMG-CoA Reductase (Rattus norvegicus, UniProt P51639).
T1 construct: the microsomal fraction is isolated by differential ultra centrifugation to obtain the HMG-CoA reductase enzyme; from tissue; host or cells: rat liver, microsomal fraction (cholestyramine-fed rats)
T1 sequence (P51639 1-887): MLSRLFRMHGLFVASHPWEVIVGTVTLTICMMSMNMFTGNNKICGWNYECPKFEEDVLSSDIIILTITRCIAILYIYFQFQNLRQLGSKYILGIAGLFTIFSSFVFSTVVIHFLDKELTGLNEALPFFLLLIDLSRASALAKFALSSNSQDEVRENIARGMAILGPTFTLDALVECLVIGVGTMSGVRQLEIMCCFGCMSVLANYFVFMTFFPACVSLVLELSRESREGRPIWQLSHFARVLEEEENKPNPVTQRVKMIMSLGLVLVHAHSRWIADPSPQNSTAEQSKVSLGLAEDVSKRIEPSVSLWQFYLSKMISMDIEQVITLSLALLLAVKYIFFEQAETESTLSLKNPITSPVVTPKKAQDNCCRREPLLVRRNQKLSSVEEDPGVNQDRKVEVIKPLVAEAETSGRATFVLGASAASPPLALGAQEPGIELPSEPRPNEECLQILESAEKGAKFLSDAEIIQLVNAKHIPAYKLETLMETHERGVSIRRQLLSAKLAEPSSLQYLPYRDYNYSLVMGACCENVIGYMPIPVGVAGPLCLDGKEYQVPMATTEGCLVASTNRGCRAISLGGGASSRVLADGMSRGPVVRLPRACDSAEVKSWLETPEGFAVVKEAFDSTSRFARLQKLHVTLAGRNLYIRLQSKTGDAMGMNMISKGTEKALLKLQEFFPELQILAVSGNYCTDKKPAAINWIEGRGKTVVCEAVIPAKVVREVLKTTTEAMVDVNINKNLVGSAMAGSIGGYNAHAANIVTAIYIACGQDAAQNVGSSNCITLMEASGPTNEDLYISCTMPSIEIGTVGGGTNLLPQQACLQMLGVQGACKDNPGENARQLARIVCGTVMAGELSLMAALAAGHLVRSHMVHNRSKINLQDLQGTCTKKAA
The assay can be described thus: Inhibition of HMG-CoA reductase (rat liver microsomal fraction, [14C] HMG-CoA). The format is biochemical. The settings on record: rat liver microsomal enzyme, pH 7.5, 37° C., 20 min. The source says:
The HMG-CoA reductase inhibitory properties of representative compounds of this invention were established by subjecting the compounds to the following standard experimental test procedure adapted from Rodwell et al., Adv. Lipid Res. 14 1, 1976; Endo et al., FEBS Letters 72 323, 1976; and Tanzawa et al., Biochemia et Biophysica Acta 488 97, 1977.
Rat livers obtained from rats fed on a diet containing 3% cholestyramine and maintained on a reverse lighting regimen for three weeks are homogenized and the microsomal fraction is isolated by differential ultra centrifugation to obtain the HMG-CoA reductase enzyme. To a preincubated (five minutes at 37° C.) solution of the compound being tested (as either the lactone and/or dihydroxy sodium carboxylate in amounts from 10^-3 to 10^-6 M) in TEDKS100 pH (Tris® 40 mM; EDTA 1 mM; dithiothreitol 5 mM; KCl 70 mM; sucrose 100 mM) 7.5 buffer or DMSO dissolved in an assay medium containing 20 μl of 2.5M KCl; 20 μl NADPH (reduced nicotinamide adenine dinucleotide phosphate) (7.5 mM); and 40 μl of labeled (RS) HMG-CoA (3-^14 C; […]; 200 μM) is added 10 μl of preincubated (five minutes at 37° C.) microsomal fraction (produced above) to obtain a total volume of 125 μl. After a twenty minute incubation period at 37° C., reaction of the enzyme is terminated by addition of 10 μl of 70% of HClO4. The assay tubes are then centrifuged for two minutes in a Beckman microfuge II.
To 100 μl of the supernatant liquid is added 10 μl of non-radioactivemevalonic acid lactone (0.25M in 8 mM H2 SO4). An aliquot of the sample is eluted with 8 mM H2 SO4 through Bio Rad Aminex HPX-87H (HPLC; Hewlett-Packard Model 1084B) at a flow rate of 1 mL/minute. The effluent is fractionated, Hydrofluor® is added and radioactivity of the [^14 C] mevalonolactone produced by reduction of [^14 C] HMG-CoA determined with a scintillation counter.
The percent inhibition of HMG-CoA reductase activity is obtained by comparison with a control assay devoid of the test compound. The inhibitory concentration (IC50) is calculated for the various test compounds.

Assay [1] deals with biosynthesis of cholesterol. The note with it: background; cited from earlier work.
Setting [2] is: Dihydroxycarboxylate form (dihydroxy sodium carboxylate), read-out: Inhibition of HMG-CoA Reductase (IC50, M), Dihydroxycarboxylate.
[3] abbreviates: Lactone form, read-out: Inhibition of HMG-CoA Reductase (IC50, M), Lactone.

Like-named read-outs stand apart in the source and are kept apart here.

`CCC(C)(C)C(=O)OC(c1ccccc1)c1cc(C)cc(C)c1/C=C/[C@@H]1C[C@@H](O)CC(=O)O1` (relative stereo) [Example 3, 2,2-Dimethylbutanoic acid[4α,6β,(E)]-[[3,5-dimethyl-[2-[2-tetrahydro-4-hydroxy-6-oxo-2H-pyran-2-yl]ethenyl]phenyl]phenylmethyl]ester]: the concentration for half-maximal inhibition (IC50) on HMG-CoA Reductase (setting [2]) is 6.2e-06 M; at HMG-CoA Reductase (setting [3]), 0.0017 M.

As for `CCCCCCCCCC(OC(=O)C(C)(C)CC)c1cc(C)cc(C)c1/C=C/[C@@H]1C[C@@H](O)CC(=O)O1` (relative stereo) [Example 2, 2,2-Dimethylbutanoic acid[4α,6β(E)]-1-[2-[2-(tetrahydro-4-hydroxy-6-oxo-2H-pyran-2-yl)ethenyl]-3,5-dimethylphenyl]decyl ester], the half-maximal inhibitory concentration (IC50) is more than 0.0001 M at HMG-CoA Reductase (setting [2]) and more than 0.001 M at HMG-CoA Reductase (setting [3]).

For `CC[C@H](C)C(=O)O[C@H]1C[C@@H](C)C=C2C=C[C@H](C)[C@H](CC[C@@H]3C[C@@H](O)CC(=O)O3)[C@H]21` [Mevinolin, reference compound], the “inhibition of cholesterol biosynthesis, in words” value in assay [1] is recorded as “more effectively”. The IC50 is 5e-09 M on HMG-CoA Reductase (setting [2]) and 6e-07 M at HMG-CoA Reductase (setting [3]).

On to `CCCC(OC(=O)C(C)(C)CC)c1cc(C)cc(C)c1/C=C/[C@@H]1C[C@@H](O)CC(=O)O1` (relative stereo) [Example 1], for which the values for the IC50 on HMG-CoA Reductase (setting [2]) and on HMG-CoA Reductase (setting [3]) were 1.7e-06 M and 2.7e-06 M, respectively.

Regarding `CC[C@H](C)C(=O)O[C@H]1CCC=C2C=C[C@H](C)[C@H](CC[C@@H]3C[C@@H](O)CC(=O)O3)[C@H]21` [compactin], the “inhibition of cholesterol biosynthesis, in words” value in assay [1] is “could be inhibited”.

As to `CCC(C)(C)C(=O)OCc1cc(C)cc(C)c1/C=C/[C@@H]1C[C@@H](O)CC(=O)O1` (relative stereo) [Example 4], the IC50 at HMG-CoA Reductase (setting [2]) is 4e-05 M; on HMG-CoA Reductase (setting [3]) it was 5.7e-05 M.
